Eight compounds from ChEMBL document CHEMBL5518222, “Retro-Inverso Collagen Modulator Peptide Derived from Serpin A1 with Enhanced Stability and Activity In Vitro” (J Med Chem, 2024) can be followed below.

Activity calls are given as the source filed them. The rule behind the calls is not given here. Peptide text beside a SMILES is read from it. * marks the point of attachment. Palmitoyl = CCCCCCCCCCCCCCCC(=O)*

Data set [1] concerns NHDF. Nature of the data set: Cytotoxicity against neonatal HDF cells assessed as reduction in cell viability incubated for 72 hrs by MTS assay. The following applies: human. The class given is toxicity, cell-based.
Data set [2] can be described thus: Upregulation of procollagen level in neonatal HDF cell conditioned media at 20 uM incubated for 72 hrs by Western blot analysis relative to control. The class given is functional, Homo sapiens, NHDF.
The test system of data set [3] is NHDF. Nature of the data set: Upregulation of collagen level in neonatal HDF cell lysate at 20 uM incubated for 72 hrs by Western blot analysis. The class given is functional, subcellular. The note with it: Homo sapiens.
For data set [4], the system named is NHDF. Nature of the data set: Downregulation of enzyme-digested low molecular weight collagen level in neonatal HDF cell conditioned media at 20 uM incubated for 48 hrs by Western blot analysis. In kind it is functional, cell-based. The note with it: Homo sapiens.
The nature of data set [5]: Stability of compound in human skin homogenate assessed as dermal protease mediated stability by measuring compound remaining measured after 24 hrs by HPLC-MS/MS analysis. In kind it is ADME, tissue-based, Skin of body. The note with it: read-out: Stability.
In data set [6] the target is Matrix metalloproteinase-9 (Homo sapiens) (UniProt P14780). Nature of the data set: Inhibition of MMP-9 (unknown origin).
The target of data set [7] is T1, Neutrophil elastase (Homo sapiens) (UniProt P08246).
T1 sequence (whole entry): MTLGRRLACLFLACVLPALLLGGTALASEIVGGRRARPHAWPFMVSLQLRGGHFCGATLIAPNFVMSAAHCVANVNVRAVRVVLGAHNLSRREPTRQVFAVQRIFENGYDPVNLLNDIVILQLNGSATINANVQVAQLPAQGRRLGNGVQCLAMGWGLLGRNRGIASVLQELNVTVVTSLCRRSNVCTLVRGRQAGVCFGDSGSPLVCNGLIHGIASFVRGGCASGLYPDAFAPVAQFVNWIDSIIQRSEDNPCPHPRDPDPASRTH
Nature of the data set: Inhibition of neutrophil elastase (unknown origin).

The subject of data set [8] is NHDF. The data set is described as follows: Inhibition of cell invasion in neonatal HDF cells assessed as decrease in number of migrated cells in acceptor chamber at 20 uM incubated for 72 hrs by Boyden chamber invasion assay. In kind it is functional, cell-based. The following applies: Homo sapiens.

Sequence of Matrix metalloproteinase-9 (Homo sapiens) (P14780 whole entry): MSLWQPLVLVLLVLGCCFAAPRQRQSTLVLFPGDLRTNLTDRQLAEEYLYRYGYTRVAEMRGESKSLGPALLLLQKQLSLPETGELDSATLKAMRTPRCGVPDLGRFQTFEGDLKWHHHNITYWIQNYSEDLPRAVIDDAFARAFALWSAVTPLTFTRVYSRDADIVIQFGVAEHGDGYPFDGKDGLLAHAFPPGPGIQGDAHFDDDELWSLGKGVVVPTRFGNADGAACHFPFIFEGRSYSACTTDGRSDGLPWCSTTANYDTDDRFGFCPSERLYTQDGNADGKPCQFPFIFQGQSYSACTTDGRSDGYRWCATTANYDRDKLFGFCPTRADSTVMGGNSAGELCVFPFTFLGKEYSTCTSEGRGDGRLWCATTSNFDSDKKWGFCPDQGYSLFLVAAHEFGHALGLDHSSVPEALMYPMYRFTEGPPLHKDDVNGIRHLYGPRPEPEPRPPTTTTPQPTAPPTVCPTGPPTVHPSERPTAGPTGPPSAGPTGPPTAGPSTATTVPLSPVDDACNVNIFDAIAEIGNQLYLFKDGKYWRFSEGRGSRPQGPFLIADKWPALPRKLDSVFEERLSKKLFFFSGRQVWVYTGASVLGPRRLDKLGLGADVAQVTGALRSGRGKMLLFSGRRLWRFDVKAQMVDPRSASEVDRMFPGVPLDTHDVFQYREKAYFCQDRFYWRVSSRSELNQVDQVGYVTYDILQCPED

Turning to `CC(=O)N[C@@H](CCCCN)C(=O)N[C@H](C(=O)N[C@H](C(=O)N[C@@H](CC(N)=O)C(N)=O)C(C)C)C(C)C`, the values for the Activity result (with NHDF [1]; in data set [2]) were “Non-Toxic” and 87%, respectively. Further, the result with NHDF [3] and with NHDF [4] was Active.

As for `CCCCCCCCCCCCCCCC(=O)N[C@@H](CCCCN)C(=O)N[C@H](C(=O)N[C@H](C(=O)N[C@@H](CCCCN)C(=O)N[C@@H](CO)C(=O)O)[C@@H](C)O)[C@@H](C)O` (Palmitoyl-KTTKS-OH), in data set [5], the remaining at 24 h turned out to be 36%.

On to Ac-MGKVVNPTQK-NH2, for which the Activity in data set [2] is 57%. In addition, the result in the data set with NHDF [3] and in the data set on NHDF [4] was Active.

Regarding `CC(=O)N[C@H](C(=O)N[C@@H](CC(N)=O)C(=O)N1CCC[C@H]1C(=O)N[C@H](C(N)=O)[C@@H](C)O)C(C)C` (Ac-VNPT-NH2), the Activity entry in the data set on NHDF [1] is listed as “Non-Toxic”; in data set [2], 48%. Also, the outcome in the data set with NHDF [3] and in the data set on NHDF [4] was Active.

Regarding `CSCC[C@H](NC(C)=O)C(=O)NCC(=O)N[C@@H](CCCCN)C(=O)N[C@H](C(N)=O)C(C)C` (Ac-MGKV-NH2), the Activity result is “Non-Toxic” in the data set on NHDF [1] and 116% in data set [2]. In addition, the result in the data set on NHDF [3] and with NHDF [4] was Active.

Regarding `CC(=O)N[C@H](CCCCN)C(=O)N[C@@H](C(=O)N[C@@H](C(=O)N[C@H](CC(N)=O)C(N)=O)C(C)C)C(C)C`, the Activity entry in the data set with NHDF [1] is listed as “Non-Toxic”. Moreover, the outcome with NHDF [3] was Active.

With `CC(=O)N1CCC[C@H]1C(=O)N[C@H](C(=O)N[C@@H](CCC(N)=O)C(=O)N[C@@H](CCCCN)C(N)=O)[C@@H](C)O` (Ac-PTQK-NH2), the Activity result in the data set on NHDF [1] is on record as “Non-Toxic”; in data set [2], 31%. The result in the data set on NHDF [3] and in the data set with NHDF [4] was Active.

Turning to `CC(=O)N[C@H](CC(N)=O)C(=O)N[C@@H](C(=O)N[C@@H](C(=O)N[C@H](CCCCN)C(N)=O)C(C)C)C(C)C`, the Activity result with NHDF [1] is on record as “Non-Toxic”. For the same compound, the inhibition entry in data set [6] and in data set [7] was “inactive” in each case. For the same compound, the outcome with NHDF [3] was Active. The remaining at 24 h in data set [5] came out at 99.6%. Further, the inhibition result in the data set on NHDF [8] is “Active”.
